Test results reported in patent US4883798A, “Pharmaceutical compositions” (EGIS Gyogyszergyar, priority 1987, dated 1989).
Like-named read-outs stand apart in the source and are kept apart here.

Assays:
[1] = Acute toxicity in mice (p.o., 14 days observation); details: mouse, in vivo, po
Protocol: The experiments were performed in CFLP white mice of both sexes of 18-22 g body weight in groups of at least 10 animals. The test compound was applied p.o. dissolved in a solution containing 0.2% Tween-80 in distilled water in a volume of 20-30 ml/kg. The observation period after treatment lasted for 14 days. Statistical evaluation was carried out as described by Litchfield-Wilcoxon's method.
The above tests are carried out by standard methods. Reference is made to the following citations: Litchfield, J. T., Wilcoxon, F.: J. Pharmacol. Exp. Ther., 96, 99-113 (1949); Newbould, B. B.: Brit. J. Pharmacol. 35, 487 (1969); Shay, H., Kemarov, S. A., Fels, S. S., Meranze, D., Gruenstein, M., Siplet, H.: Gastroenterology 5, 45 (1945); Stickney, J. C., Northup, D. W., Van Liere, E. J.: Arch. int. Pharmacodyn. 147, 113 (1964); Winter, C. A., Risley E. A., Nuss, G. W.: Proc. Soc. Exp. Biol. Med. 111, 544-547 (1962).

[2] = system: rats; experiment: Analgesic activity "Writhing test" in rats (acetic acid i.p.); assay type: in vivo, rat; details: p.o., 1 hour before acetic acid i.p.
Protocol: Rats weighing 130-170 g were administered intraperitoneally 0.75% (v/v) acetic acid in a volume of 8 ml/kg. Five minutes after treatment with acetic acid the total number of characteristic writhing reactions was counted for 10 minutes and expressed as percentage of the control group.
(§1) The above tests are carried out by standard methods. […] Pharmacodyn. […] A., Risley E. A., Nuss, G. W.: Proc. Soc.

[3] = system: Wistar rats; experiment: Antipyretic effect in rats (brewer yeast-induced fever); assay type: in vivo, rat (Wistar)
Protocol: The experiments were performed in groups of 10 Wistar rats of both sexes weighing 160-200 g. Fever was induced by 20% brewer yeast suspended in 0.9% saline solution, applied subcutaneously in a volume of 2 ml/rat distributed at various sites of the back. After 18 hours the test compound or the vehicle (control) was administered in volume of 10 ml./kg p.o. During this period the rats were fasted but received drinking water ad libitum. The rectal temperature of the animals was measured with a Thermotest thermometer 2 days before the administration of the test compound and after treatment every 60th minute. Animals with an increase of body temperature less than 0.8° C. were excluded from the experiment.
as §1

[4] = system: granulocytes; experiment: Measurement of chemiluminescence of granulocytes (PHA-stimulated, luminol); assay type: cell-based, human (healthy volunteers); details: Homo sapiens, 0.25 h, read-out: IC50, chemiluminescence of granulocytes
Protocol: The test-compounds were dissolved in dimethyl-sulfoxide (DMSO) in a concentration of 10^-1 M, dilutions were made in the incubation medium employed. Heparinized blood (10 IU/ml) was taken from healthy volunteers. The blood was diluted with equal wolume of dextran, then the white blood cells were separated by sedimentation. The granulocytes were separated by Uromio gradient. […] The cell suspension was put in dark box for 15 min. Luminol was dissolved in concentrated NH4 OH and diluted in the following solution:
50 ml Tris-Parker medium (containing 1,2 g Tris, pH=7,4)
150 ml Parker tissue culture medium
4 ml glucose 40% w/v in water
The Luminol solution (500 μl) was measured in plastic vials and put in dark (37° C.). The reaction was started by addition of the cells and stimulating agent (Phytohaemaglutinin-PHA-10 μg/ml).
The vials were continuously and gently shaken and the PHA stimulation was measured in every 2,5 min. for 15 min. in a Beckmann LS-100 spectrometer (coincidence switched off). The percentage of the counts measured was calculated in comparison with the solvent treated control cells. At least 5 concentrations of each compound were investigated in at least 3 parallels.

[5] = PHA 10 μg/ml stimulation, luminol 32 μM, 37° C., 15 min

| SMILES | LD50 at 336 h [1] | Analgesic effect on rats, Therapeutical Index [2] | Maximal temperature decrease ([3]; 100 mg/kg p.o.) | IC50 [4, 5] | Maximal temperature decrease ([3]; 200 mg/kg p.o.) | IC50 [4] |
| --- | --- | --- | --- | --- | --- | --- |
| COc1cc(Cc2cnc(N)nc2N)cc(OC)c1 [Example 3, 2,4-Diamino-5-(3,5-dimethoxy-benzyl)-pyrimidine] | ~800 mg/kg | about 8.0 | – | – | – | – |
| CCOc1ccc(Cc2cnc(N)nc2N)cc1OC [Example 7, 2,4-Diamino-5-(3-methoxy-4-ethoxy-benzyl)-pyrimidine] | ~350 mg/kg | about 7.6 | 0.7 °C | ~1 µM | – | – |
| CCCCOc1ccc(Cc2cnc(N)nc2N)cc1OC [Example 9, 2,4-Diamino-5-(3-methoxy-4-n-butoxy-benzyl)-pyrimidine] | > 2000 mg/kg | > 125.0 | – | ~1 µM | – | – |
| C=CCOc1ccc(Cc2cnc(N)nc2N)cc1OC.Cl [Example 8, 2,4-Diamino-5-(3-methoxy-4-allyloxy-benzyl)-pyrimidine-hydrochloride] | ~1500 mg/kg | about 42.9 | 0.8 °C | ~1 µM | – | – |
| CCCCC1C(=O)N(c2ccccc2)N(c2ccccc2)C1=O [Phenylbutazone, 3,5-dioxo-1,2-diphenyl-4-(n-butyl)-pyrazolidine, reference compound] | – | – | – | 100 µM | – | – |
| CC(=O)Oc1ccccc1C(=O)O [Acetylsalicylic acid, reference compound] | – | – | – | – | 1.0 °C | – |
| COc1cccc(Cc2cnc(N)nc2N)c1 [Example 2, 2,4-Diamino-5-(3-methoxy-benzyl)-pyrimidine] | ~410 mg/kg | about 5.9 | – | ~100 µM | – | – |
| COc1ccc(Cc2cnc(N)nc2N)c(OC)c1 [Example 4, 2,4-Diamino-5-(2,4-dimethoxy-benzyl)-pyrimidine] | ~2000 mg/kg | about 33.3 | – | – | – | – |
| COc1ccc2c(c1)c(CC(=O)O)c(C)n2C(=O)c1ccc(Cl)cc1 [Indomethacin, 1-(p-chloro-benzoyl)-5-methoxy-2-methyl-1H-indole-3-acetic acid, reference compound] | 22.5 mg/kg | 4.8 | – | – | – | 100 µM |
| COc1cccc(Cc2cnc(N)nc2N)c1OC [Example 5, 2,4-Diamino-5-(2,3-dimethoxy-benzyl)-pyrimidine] | ~500 mg/kg | about 5.0 | – | – | – | – |
| Br.COc1cc(Cc2cnc(N)nc2N)ccc1O [Example 12, 2,4-Diamino-5-(3-methoxy-4-hydroxy-benzyl)-pyrimidine-hydrobromide] | > 2000 mg/kg | > 40.0 | – | – | – | – |
| Nc1ncc(Cc2ccc3c(c2)OCO3)c(N)n1 [Example 6, 2,4-Diamino-5-(3,4-methylenedioxy-benzyl)-pyrimidine] | ~750 mg/kg | about 57.7 | 1.0 °C | – | – | – |
| COc1ccc(Cc2cnc(N)nc2N)cc1 [Example 1, 2,4-Diamino-5-(4-methoxy-benzyl)-pyrimidine] | ~350 mg/kg | about 8.1 | – | ~100 µM | 0.9 °C | – |
| COCCOc1ccc(Cc2cnc(N)nc2N)cc1OC [Example 10, 2,4-Diamino-5-(3-methoxy-4-methoxyethoxy-benzyl)-pyrimidine] | < 500 mg/kg | < 14.3 | – | – | – | – |
| CN1C(C(=O)Nc2ccccn2)=C(O)c2ccccc2S1(=O)=O [Piroxicam, 4-hydroxy-2-methyl-N-2-pyridyl-2H-1,2-benzothiazine-3-carboxamide-1,1-dioxide, reference compound] | – | – | – | 100 µM | – | – |
| COc1cc(Cc2cnc(N)nc2N)ccc1OCc1ccccc1 [Example 11, 2,4-Diamino-5-(3-methoxy-4-benzyloxy-benzyl)-pyrimidine] | > 2000 mg/kg | > 37.0 | – | – | – | – |
